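The compound was tested at five concentrations on cells cultured in 96-well plates, with a 48-hour exposure period. GI50: concentration for 50% inhibition of growth.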 Active and inactive are the calls of the source. No stated cut-off is given here; in the data, active = GI50 up to about 1.1 µM and inactive = higher.
Experiments:
Assay in all cases: NCI-60 cell line screen, 48 h
SR = tested on: SR
SK-MEL-5 = tested on: SK-MEL-5
NCI-H226 = tested on: NCI-H226
TK-10 = tested on: TK-10
COLO 205 = tested on: COLO 205
SK-MEL-2 = tested on: SK-MEL-2
SN12C = tested on: SN12C
HT-29 = tested on: HT-29
DU-145 = tested on: DU-145
RXF 393 = tested on: RXF 393
ACHN = tested on: ACHN
T47D = tested on: T47D
EKVX = tested on: EKVX
UACC-257 = tested on: UACC-257
RPMI-8226 = tested on: RPMI-8226
Malme-3M = tested on: Malme-3M
UACC-62 = tested on: UACC-62
PC-3 = tested on: PC-3
SF-539 = tested on: SF-539
MDA-N = tested on: MDA-N

| Compound | GI50 (SR) | GI50 (SK-MEL-5) | GI50 (NCI-H226) | GI50 (TK-10) | GI50 (COLO 205) | GI50 (SK-MEL-2) | GI50 (SN12C) | GI50 (HT-29) | GI50 (DU-145) | GI50 (RXF 393) | GI50 (ACHN) | GI50 (T47D) | GI50 (EKVX) | GI50 (UACC-257) | GI50 (RPMI-8226) | GI50 (Malme-3M) | GI50 (UACC-62) | GI50 (PC-3) | GI50 (SF-539) | GI50 (MDA-N) |
| --- | --- | --- | --- | --- | --- | --- | --- | --- | --- | --- | --- | --- | --- | --- | --- | --- | --- | --- | --- | --- |
| COc1cccc2[nH]c(-c3ccccn3)nc12 | > 100 µM (inactive) | > 100 µM (inactive) | > 100 µM (inactive) | > 100 µM (inactive) | > 100 µM (inactive) | > 100 µM (inactive) | > 100 µM (inactive) | > 100 µM (inactive) | > 100 µM (inactive) | > 100 µM (inactive) | 56.2 µM (inactive) | > 100 µM (inactive) | > 100 µM (inactive) | > 100 µM (inactive) | 32.4 µM (inactive) | > 100 µM (inactive) | > 100 µM (inactive) | > 100 µM (inactive) | > 100 µM (inactive) | > 100 µM (inactive) |
| CCN(CC)CCCn1c(=O)c2cccnc2n2c3c(=O)n(C)c(=O)n(C)c3nc12 | > 100 µM (inactive) | > 100 µM (inactive) | > 100 µM (inactive) | > 100 µM (inactive) | > 100 µM (inactive) | > 100 µM (inactive) | > 100 µM (inactive) | > 100 µM (inactive) | > 100 µM (inactive) | > 100 µM (inactive) | > 100 µM (inactive) | > 100 µM (inactive) | > 100 µM (inactive) | > 100 µM (inactive) | > 100 µM (inactive) | > 100 µM (inactive) | > 100 µM (inactive) | > 100 µM (inactive) | > 100 µM (inactive) | > 100 µM (inactive) |
| O=P(c1ccccc1)(c1ccccc1)N1O[C@@H](c2ccccc2)C=C[C@H]1c1ccccc1 | 4.46 µM (inactive) | 11.4 µM (inactive) | 11.9 µM (inactive) | 14 µM (inactive) | 12.3 µM (inactive) | 12 µM (inactive) | 4.36 µM (inactive) | 9.75 µM (inactive) | 13 µM (inactive) | 10 µM (inactive) | 10.2 µM (inactive) | 4.61 µM (inactive) | 10.4 µM (inactive) | 11.9 µM (inactive) | 5.79 µM (inactive) | 14.5 µM (inactive) | 6.17 µM (inactive) | 2.96 µM (inactive) | 16.2 µM (inactive) | 3.31 µM (inactive) |
| C=C1C(=O)OC2/C=C(CO)/C=C\C3OC3(C)CC(OC(=O)/C(C)=C/COC(C)=O)C12 (stereo not given) | 0.56 µM (active) | 5 µM (inactive) | 12.2 µM (inactive) | 5.16 µM (inactive) | 1.6 µM (inactive) | 3.75 µM (inactive) | 2.21 µM (inactive) | 2.52 µM (inactive) | 16.6 µM (inactive) | 1.85 µM (inactive) | 3.14 µM (inactive) | 2.65 µM (inactive) | 3.78 µM (inactive) | 2.37 µM (inactive) | 0.716 µM (active) | 1.77 µM (inactive) | 2.2 µM (inactive) | 10 µM (inactive) | 1.96 µM (inactive) | 1.75 µM (inactive) |
| N=C(N)N/N=C/c1nc2sccn2c1[N+](=O)[O-] | 33.2 µM (inactive) | 18.7 µM (inactive) | 81.1 µM (inactive) | 85.3 µM (inactive) | 16.2 µM (inactive) | 19 µM (inactive) | 37.5 µM (inactive) | 26.2 µM (inactive) | 22.3 µM (inactive) | 8.77 µM (inactive) | 60.3 µM (inactive) | 18.2 µM (inactive) | 34.2 µM (inactive) | 16.3 µM (inactive) | 82.4 µM (inactive) | 13.3 µM (inactive) | 30.9 µM (inactive) | 35.2 µM (inactive) | 36.8 µM (inactive) | 19.6 µM (inactive) |
| Cc1cc(C)c2nc3c(c(C(O)C4CCCCN4)c2c1)CC/C3=C\c1ccc(Cl)cc1 (stereo not given) | 34.2 µM (inactive) | 28.9 µM (inactive) | > 100 µM (inactive) | > 100 µM (inactive) | 41 µM (inactive) | 64.9 µM (inactive) | 38.1 µM (inactive) | 30.4 µM (inactive) | 81.1 µM (inactive) | 27.7 µM (inactive) | 78.3 µM (inactive) | 30.3 µM (inactive) | 43.2 µM (inactive) | 32.8 µM (inactive) | 40.7 µM (inactive) | > 100 µM (inactive) | 65 µM (inactive) | 54.1 µM (inactive) | > 100 µM (inactive) | 50.4 µM (inactive) |
| CCC1(c2ccc(N3C(=O)c4cc(OC)c(OC)cc4C3=O)cc2)CCC(=O)NC1=O (stereo not given) | > 10 µM (inactive) | > 10 µM (inactive) | > 10 µM (inactive) | > 10 µM (inactive) | > 10 µM (inactive) | > 10 µM (inactive) | > 10 µM (inactive) | > 10 µM (inactive) | > 10 µM (inactive) | > 10 µM (inactive) | > 10 µM (inactive) | > 10 µM (inactive) | > 10 µM (inactive) | > 10 µM (inactive) | > 10 µM (inactive) | > 10 µM (inactive) | > 10 µM (inactive) | > 10 µM (inactive) | > 10 µM (inactive) | > 10 µM (inactive) |

— ChEMBL document CHEMBL1201862, “PubChem BioAssay data set” (2004)
